From ChEMBL document CHEMBL4342403, “New evolutions in the BACE1 inhibitor field from 2014 to 2018” (Bioorg Med Chem Lett, 2019)

Tests used:
Rattus norvegicus [1] = experiment: In vivo inhibition of BACE1 in Sprague Dawley rat assessed as reduction in amyloidbeta 40 level in brain at 3 mg/kg, po by ELISA relative to control; format: functional
P-glycoprotein (ABCB1) = P-glycoprotein (ABCB1) (Homo sapiens, UniProt P08183); experiment: Substrate activity at P-glycoprotein (unknown origin) in MDCK-MDR1cells assessed as efflux ratio incubated over 60 mins by LC-MS/MS analysis; conditions: MDCK-MDR1
Chain of P-glycoprotein (ABCB1) (P08183 whole entry): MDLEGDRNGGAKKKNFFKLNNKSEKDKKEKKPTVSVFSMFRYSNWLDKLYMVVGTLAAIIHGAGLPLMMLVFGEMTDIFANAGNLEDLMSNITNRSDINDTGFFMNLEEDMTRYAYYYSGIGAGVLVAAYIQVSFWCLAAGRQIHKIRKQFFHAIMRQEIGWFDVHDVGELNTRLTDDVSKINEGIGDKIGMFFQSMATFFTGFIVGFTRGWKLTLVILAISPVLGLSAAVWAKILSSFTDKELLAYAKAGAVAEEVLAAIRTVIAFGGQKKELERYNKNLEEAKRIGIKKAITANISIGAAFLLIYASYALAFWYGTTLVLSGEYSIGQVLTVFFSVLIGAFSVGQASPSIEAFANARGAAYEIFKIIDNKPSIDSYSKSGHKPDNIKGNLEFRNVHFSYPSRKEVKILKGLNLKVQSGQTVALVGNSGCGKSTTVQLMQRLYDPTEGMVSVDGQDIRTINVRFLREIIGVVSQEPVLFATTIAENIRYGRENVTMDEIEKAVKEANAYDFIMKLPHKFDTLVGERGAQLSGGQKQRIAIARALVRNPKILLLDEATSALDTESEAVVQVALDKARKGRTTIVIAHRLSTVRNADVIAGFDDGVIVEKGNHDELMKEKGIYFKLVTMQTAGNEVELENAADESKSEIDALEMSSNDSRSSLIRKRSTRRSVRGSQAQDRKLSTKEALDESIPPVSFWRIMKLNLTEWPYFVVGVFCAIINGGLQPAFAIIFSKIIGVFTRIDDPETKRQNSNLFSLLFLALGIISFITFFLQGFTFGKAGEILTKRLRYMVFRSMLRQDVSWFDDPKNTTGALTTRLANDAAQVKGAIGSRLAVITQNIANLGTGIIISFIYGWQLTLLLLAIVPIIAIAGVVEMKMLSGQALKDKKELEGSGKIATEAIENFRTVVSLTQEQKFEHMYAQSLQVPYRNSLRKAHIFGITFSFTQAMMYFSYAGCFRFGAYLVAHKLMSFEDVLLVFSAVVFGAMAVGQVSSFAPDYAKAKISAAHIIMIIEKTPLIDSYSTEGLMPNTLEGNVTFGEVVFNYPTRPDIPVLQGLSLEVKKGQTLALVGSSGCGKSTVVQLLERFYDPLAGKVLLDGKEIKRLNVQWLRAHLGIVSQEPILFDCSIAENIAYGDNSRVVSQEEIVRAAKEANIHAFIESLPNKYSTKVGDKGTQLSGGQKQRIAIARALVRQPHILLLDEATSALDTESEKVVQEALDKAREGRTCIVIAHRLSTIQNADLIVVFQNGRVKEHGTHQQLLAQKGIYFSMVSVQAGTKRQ

[2] = Drug uptake in Sprague Dawley rat brain at 3 mg/kg, po by UPLC-MS/MS analysis; format: ADME, organism-based; conditions: in vivo
[3] = Brain to plasma partition coefficient, Kp of the compound in Sprague Dawley rat at 30 mg/kg, po; format: ADME, organism-based
[4] = Brain to plasma partition coefficient, Kp of the compound in Sprague Dawley rat at 10 mg/kg, po; format: ADME, organism-based
Rattus norvegicus [5] = experiment: In vivo inhibition of BACE1 in Sprague Dawley rat assessed as reduction in amyloidbeta 40 level in brain at 10 mg/kg, po measured at 3 hrs post dose by ELISA relative to control; format: functional
Rattus norvegicus [6] = experiment: In vivo inhibition of BACE1 in Sprague Dawley rat assessed as reduction in amyloidbeta 40 level in brain at 30 mg/kg, po measured at 3 hrs post dose by ELISA relative to control; format: functional
Homo sapiens [7] = experiment: In vivo inhibition of BACE1 in human assessed as reduction in amyloidbeta40 level in CSF at 60 mg administered once daily for 7 days relative to baseline; format: functional
Homo sapiens [8] = experiment: In vivo inhibition of BACE1 in human assessed as reduction in amyloidbeta40 level in CSF at 40 mg administered once daily for 7 days relative to baseline; format: functional
Homo sapiens [9] = experiment: In vivo inhibition of BACE1 in human assessed as reduction in amyloidbeta40 level in CSF at 12 mg administered once daily for 7 days relative to baseline; format: functional
Mus musculus = experiment: In vivo inhibition of BACE1 in C57B1/6J mouse assessed as reduction in amyloidbeta 40 level in brain at 30 mg/kg, po measured at 4 hrs post dose by AlphaLISA relative to control; format: functional
Canis familiaris [10] = experiment: In vivo inhibition of BACE1 in Beagle dog assessed as reduction in amyloidbeta (1 to 42 residues) at 0.31 mg/kg, po measured at 8 hrs post dose relative to baseline; format: functional; conditions: Canis lupus familiaris
Canis familiaris [11] = experiment: In vivo inhibition of BACE1 in Beagle dog assessed as reduction in amyloidbeta (1 to 42 residues) at 1.25 mg/kg, po measured at 8 hrs post dose relative to baseline; format: functional; conditions: Canis lupus familiaris
Canis familiaris [12] = experiment: In vivo inhibition of BACE1 in Beagle dog assessed as reduction in amyloidbeta (1 to 42 residues) at 0.16 mg/kg, po measured at 8 hrs post dose relative to baseline; format: functional; conditions: Canis lupus familiaris
Beta-secretase 2 [13] = biological target: T1, Beta-secretase 2 (Homo sapiens, UniProt Q9Y5Z0); experiment: Inhibition of BACE2 (unknown origin) incubated for 450 mins using APP swedish mutant as substrate by FRET assay
T1 sequence (Q9Y5Z0 whole entry): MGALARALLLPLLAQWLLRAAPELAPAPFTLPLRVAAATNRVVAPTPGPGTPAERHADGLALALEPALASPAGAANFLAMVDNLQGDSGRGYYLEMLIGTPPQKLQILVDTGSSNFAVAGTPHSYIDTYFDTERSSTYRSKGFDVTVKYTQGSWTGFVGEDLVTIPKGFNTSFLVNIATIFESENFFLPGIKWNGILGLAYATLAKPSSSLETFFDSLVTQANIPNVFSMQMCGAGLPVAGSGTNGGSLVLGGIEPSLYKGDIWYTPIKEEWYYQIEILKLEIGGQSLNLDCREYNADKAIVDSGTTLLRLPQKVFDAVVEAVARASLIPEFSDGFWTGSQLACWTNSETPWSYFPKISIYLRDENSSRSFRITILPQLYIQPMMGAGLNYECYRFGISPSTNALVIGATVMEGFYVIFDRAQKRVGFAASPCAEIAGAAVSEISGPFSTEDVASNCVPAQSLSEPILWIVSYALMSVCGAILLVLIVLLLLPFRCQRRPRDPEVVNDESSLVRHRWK

Beta-secretase 1 [14] = biological target: T2, Beta-secretase 1 (Homo sapiens, UniProt P56817); experiment: Inhibition of BACE1 in human SK-N-BE(2) cells expressing human APP695 assessed as reduction in amyloidbeta (1 to 42 residues) level incubated for 18 hrs by sandwich ELISA; format: cell-based
T2 sequence (P56817 whole entry, the tested form may be a part): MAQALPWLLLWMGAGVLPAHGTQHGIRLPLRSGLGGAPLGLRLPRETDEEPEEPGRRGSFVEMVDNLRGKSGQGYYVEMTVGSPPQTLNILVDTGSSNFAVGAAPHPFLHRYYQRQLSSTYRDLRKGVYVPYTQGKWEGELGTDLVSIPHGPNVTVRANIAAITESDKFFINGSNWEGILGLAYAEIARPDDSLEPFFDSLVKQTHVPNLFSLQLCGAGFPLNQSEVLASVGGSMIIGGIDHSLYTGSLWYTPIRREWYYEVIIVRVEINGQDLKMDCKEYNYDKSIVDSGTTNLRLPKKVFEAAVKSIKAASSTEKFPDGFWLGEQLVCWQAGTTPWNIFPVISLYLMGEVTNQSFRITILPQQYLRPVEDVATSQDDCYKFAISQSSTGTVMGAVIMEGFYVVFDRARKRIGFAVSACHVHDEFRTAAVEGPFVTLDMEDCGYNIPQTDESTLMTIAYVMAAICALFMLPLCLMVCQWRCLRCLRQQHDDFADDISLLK

Beta-secretase 1 [15] = biological target: T2, Beta-secretase 1; experiment: Inhibition of BACE1 (unknown origin) incubated for 120 mins using APP swedish mutant as substrate by FRET assay
Beta-secretase 1 [16] = biological target: T2, Beta-secretase 1; experiment: Inhibition of human BACE1 catalytic domain preincubated for 30 mins followed by QSY7-EISEVNLDAEFC-Europium-amide substrate addition and measured after […] by HTRF assay
Rattus norvegicus [17] = experiment: In vivo inhibition of BACE1 in CD-IGS rat assessed as reduction in amyloidbeta 40 level in CSF at 10 mg/kg, po measured at 3 hrs post dose by sandwich ELISA relative to control; format: functional
Beta-secretase 2 [18] = biological target: T1, Beta-secretase 2; experiment: Inhibition of human BACE2 preincubated for 30 mins followed by QSY7- EISEVNLDAEFC-Eu-amide substrate addition and measured after […] by HTRF assay
Beta-secretase 1 [19] = biological target: Beta-secretase 1 (Cricetulus griseus, UniProt G3IAK4); experiment: Inhibition of BACE1 in CHO cells expressing human APP assessed as reduction in amyloidbeta (1 to 40 residues) level incubated for 24 hrs by immunoassay method; format: cell-based
Chain of Beta-secretase 1 (Cricetulus griseus, UniProt G3IAK4) (G3IAK4 whole entry, the tested form may be a part): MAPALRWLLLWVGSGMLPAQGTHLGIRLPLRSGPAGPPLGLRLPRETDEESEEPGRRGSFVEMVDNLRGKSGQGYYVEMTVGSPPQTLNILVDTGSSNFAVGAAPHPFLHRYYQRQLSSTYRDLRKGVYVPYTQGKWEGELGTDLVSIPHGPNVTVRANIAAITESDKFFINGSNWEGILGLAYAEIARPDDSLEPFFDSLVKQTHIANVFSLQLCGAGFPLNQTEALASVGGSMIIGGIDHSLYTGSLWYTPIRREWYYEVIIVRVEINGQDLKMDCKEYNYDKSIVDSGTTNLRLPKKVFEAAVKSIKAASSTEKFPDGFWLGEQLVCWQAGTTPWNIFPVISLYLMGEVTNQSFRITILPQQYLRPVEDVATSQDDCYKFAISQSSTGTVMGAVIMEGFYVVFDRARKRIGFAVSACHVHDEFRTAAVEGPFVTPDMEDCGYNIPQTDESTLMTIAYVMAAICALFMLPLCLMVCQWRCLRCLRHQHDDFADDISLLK

Beta-secretase 1 [20] = biological target: T2, Beta-secretase 1; experiment: Inhibition of BACE1 in human H4 cells transfected with APP695 assessed as […] incubated for 18 hrs by ELISA; format: cell-based
[21] = Dissociation constant, pKa of the compound; format: physicochemical
Homo sapiens [22] = experiment: In vivo inhibition of BACE1 in human assessed as reduction in amyloidbeta40 level in CSF at 30 mg administered once daily after 14 days relative to baseline; format: functional
Homo sapiens [23] = experiment: In vivo inhibition of BACE1 in human assessed as reduction in amyloidbeta40 level in CSF at 90 mg administered once daily after 14 days relative to baseline; format: functional
Homo sapiens [24] = experiment: In vivo inhibition of BACE1 in human assessed as reduction in amyloidbeta40 level in CSF at 50 mg administered once daily after 14 days relative to baseline; format: functional

Question: With `[2H]C([2H])([2H])Oc1cnc(C(=O)Nc2ccc(F)c([C@@]3(C)N=C(N)[C@@](C)(F)C[C@@H]3F)c2)cn1` as the compound, how does the inhibition in vivo at 3 mg/kg (Rattus norvegicus [1]) read?
Answer: 52%

Question: And the efflux ratio at 1 h (P-glycoprotein (ABCB1))?
Answer: 0.85

Question: And the Drug uptake [2]?
Answer: 610 ng/g

Question: Which results are given for `Cc1cc(C#N)cnc1C(=O)Nc1ccc(F)c([C@@]2(C)N=C(N)[C@@](C)(F)CC2(F)F)c1`?
Answer: Kp [3]: 0.5; Kp [4]: 0.5; inhibition in vivo at 10 mg/kg (Rattus norvegicus [5]): 66%; inhibition in vivo at 30 mg/kg (Rattus norvegicus [6]): 61%

Question: With `CN1C(N)=N[C@](C)(c2cc(NC(=O)c3ccc(F)cn3)ccc2F)CS1(=O)=O` [VERUBECESTAT] as the compound, how does the “inhibition (INH)” value (Homo sapiens [7]) read?
Answer: 84%

Question: And the “inhibition (INH)” value (Homo sapiens [8])?
Answer: 79%

Question: What about the “inhibition (INH)” value (Homo sapiens [9]) of the same compound?
Answer: 57%

Question: With `Cc1cc(C#N)cnc1C(=O)Nc1ccc(F)c([C@@]2(C)N=C(N)C(C)(C)[S@@]3(=O)=NCC[C@@H]23)n1` as the compound, how does the inhibition in vivo at 30 mg/kg (Mus musculus) read?
Answer: 60%

Question: What does the source list for `C[C@H]1OC[C@]2(c3cc(NC(=O)c4ccc(C#N)cn4)ccc3F)N=C(N)[C@](C)(C#N)C[C@H]12`?
Answer: inhibition in vivo at 0.31 mg/kg (Canis familiaris [10]): 54%; inhibition in vivo at 1.25 mg/kg (Canis familiaris [11]): 80%; inhibition in vivo at 0.16 mg/kg (Canis familiaris [12]): 42%; IC50 (Beta-secretase 2 [13]): 14.5 nM; IC50 (Beta-secretase 1 [14]): 1.26 nM; IC50 (Beta-secretase 1 [15]): 1.86 nM

Question: Which Ki (Beta-secretase 1 [16]) does the source give for `COc1cnc2c(Nc3ccc(F)c([C@]4(C)CS(=O)(=O)N(C)C(N)=N4)c3)nccc2c1` here?
Answer: 2.6 nM

Question: What about the inhibition in vivo at 10 mg/kg (Rattus norvegicus [17]) of the same compound?
Answer: 68%

Question: What about the Ki (Beta-secretase 2 [18]) of the same compound?
Answer: 3.5 nM

Question: For `C[C@]1(c2nc(NC(=O)c3ncc(C#N)cc3Cl)ccc2F)N=C(N)OCC1(F)F`, which IC50 (Beta-secretase 1 [19]) is on record?
Answer: 8 nM

Question: For `C[C@H]1C[C@H]2CSC(N)=N[C@@]2(c2cc(NC(=O)c3ccc(OC(F)F)cn3)ccc2F)CO1`, which IC50 (Beta-secretase 1 [20]) is on record?
Answer: < 1 nM

Question: And the pKa [21]?
Answer: 8.3

Question: Which “inhibition (INH)” value (Homo sapiens [22]) does the source give for `C[C@@]1(c2cc(NC(=O)c3ccc(C#N)cn3)ccc2F)C=CSC(N)=N1` [ATABECESTAT] here?
Answer: >80%

Question: And the “inhibition (INH)” value (Homo sapiens [23])?
Answer: >80%

Question: And the “inhibition (INH)” value (Homo sapiens [24])?
Answer: >80%
